Here are results for two molecules from patent US20260041683A1, “Compounds with Anti-Acinetobacter Baumannii Activity” (University of Kentucky Research Foundation, priority 2022, published 2026).

≈ marks a conversion by molar mass, not a printed value. Where two headings read alike, the source gives them in different places. Bounds are passed on as bounds.

Assay [1] relates to Ab ATCC 19606 (strain I). Put plainly: MIC determination (double dilution, Mueller-Hinton broth). In kind it is cell-based, Acinetobacter baumannii. To be noted: for MIC: Acinetobacter baumannii, ATCC19606.
Assay [2] deals with all 43 strains of A. baumannii (41 CDC strains and 2 ATCC strains). As to the kind of experiment: MIC value statistics for all A. baumannii strains. The assay is classed as cell-based, Acinetobacter baumannii. The conditions noted are these: of 43 A. baumannii strains. The procedure, abridged: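 Broth microdilution in MH broth against CDC AR Isolate Bank and ATCC strains. Inoculum from overnight MH plates (37 °C), suspended to OD600 ~0.5, then diluted 1:1000 into serial twofold compound dilutions. Sterile and growth controls included per row.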

In assay [3] the test system is Ab strain #293 (CDC and FDA AR Bank). Put plainly: MIC determination. To be noted: Acinetobacter baumannii; Ab AR Bank #293. In kind it is cell-based. The protocol:
(§1) All bacterial strains listed above were stored at −80° C. All strains were streaked on Mueller-Hinton (MH) plates and allowed to grow at 37° C. overnight. Enough colonies were scraped from the plate and suspended in MH broth with vortexing to reach an attenuance at 600 nm (OD600) of ˜0.5. The resulting culture was diluted 1:1000 and added to the prepared serially doubly diluted compound solutions in 96-well plates. For M. smegmatis, a 1:100 dilution of the bacteria was done in MH. All MIC values were determined using 96-well plates with low evaporation seals at least in duplicate. For each row, one well was reserved for sterile control (which consisted of 200 μL of MH medium) and another well was reserved for growth control (which consisted of 100 μL of MH medium seeded with 100 μL of bacterial culture).
(§2) Then all 46 compounds were tested against a broad panel of all 41 Ab strains from the CDC and FDA Antibiotic Resistance (AR) Isolate Bank (Table 2; data shown for 2 representative compounds), which were all highly multidrug-resistant strains, including those resistant to colistin. […] The activity of the monohydrazides was not dependent on the extent (number of resistance mutations) or severity (antibiotic MIC) of resistance. All conclusions made from Table 1 remained valid for all compounds against these 41 additional Ab strains. […] This mechanism of action will be elucidated in the proposed studies.

In assay [4] the test system is Ab strain #313 (CDC and FDA AR Bank). As to the kind of experiment: MIC determination. In kind it is cell-based. The conditions noted are these: Acinetobacter baumannii; Ab AR Bank #313. The method, then: as §1, §2
In assay [5] the test system is Ab strain #300 (CDC and FDA AR Bank). As to the kind of experiment: MIC determination. In kind it is cell-based. To be noted: Acinetobacter baumannii; Ab AR Bank #300. The protocol: as §1, §2
Assay [6] concerns Ab strain #306 (CDC and FDA AR Bank). Put plainly: MIC determination. The assay is classed as cell-based. The conditions noted are these: Acinetobacter baumannii; Ab AR Bank #306. The method, then: as §1, §2
The test system of assay [7] is Ab strain #274 (CDC and FDA AR Bank). Put plainly: MIC determination. The assay is classed as cell-based. The conditions noted are these: Acinetobacter baumannii; Ab AR Bank #274. The method, then:
as §1, §2

The test system of assay [8] is Ab strain #302 (CDC and FDA AR Bank). As to the kind of experiment: MIC determination. The conditions noted are these: Acinetobacter baumannii; Ab AR Bank #302. The assay is classed as cell-based. The method, then:
as §1, §2

For assay [9], the system named is Ab strain #305 (CDC and FDA AR Bank). As to the kind of experiment: MIC determination. The assay is classed as cell-based. To be noted: Acinetobacter baumannii; Ab AR Bank #305. The protocol:
as §1, §2

The subject of assay [10] is Ab strain #312 (CDC and FDA AR Bank). As to the kind of experiment: MIC determination. In kind it is cell-based. The conditions noted are these: Acinetobacter baumannii; Ab AR Bank #312. The method, then: as §1, §2
The test system of assay [11] is Ab strain #289 (CDC and FDA AR Bank). Put plainly: MIC determination. The assay is classed as cell-based. The conditions noted are these: Acinetobacter baumannii; Ab AR Bank #289. The protocol:
as §1, §2

The subject of assay [12] is Ab strain #278 (CDC and FDA AR Bank). Put plainly: MIC determination. The assay is classed as cell-based. The conditions noted are these: Acinetobacter baumannii; Ab AR Bank #278. The protocol:
as §1, §2

For assay [13], the system named is Ab strain #295 (CDC and FDA AR Bank). Put plainly: MIC determination. In kind it is cell-based. To be noted: Acinetobacter baumannii; Ab AR Bank #295. The protocol: as §1, §2
Assay [14] deals with Ab strain #283 (CDC and FDA AR Bank). As to the kind of experiment: MIC determination. The assay is classed as cell-based. To be noted: Acinetobacter baumannii; Ab AR Bank #283. The method, then:
as §1, §2

Assay [15] has as its system Ab strain #292 (CDC and FDA AR Bank). Put plainly: MIC determination. The conditions noted are these: Acinetobacter baumannii; Ab AR Bank #292. The assay is classed as cell-based. The protocol: as §1, §2
Assay [16] deals with Ab strain #308 (CDC and FDA AR Bank). As to the kind of experiment: MIC determination. In kind it is cell-based. To be noted: Acinetobacter baumannii; Ab AR Bank #308. The protocol: as §1, §2
In assay [17] the test system is Ab ATCC BAA1605 (strain J, multidrug-resistant). Put plainly: MIC determination. In kind it is cell-based. The conditions noted are these: Acinetobacter baumannii. In short, it runs like this:
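Broth double-dilution MIC in Mueller-Hinton broth, 96-well plates, at least in duplicate. Inoculum: colonies grown overnight at 37 °C on MH plates, suspended to OD600 ~0.5 and diluted 1:1000 into serially doubly diluted compound.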

[18] abbreviates: Table 1, control strain, read-out: MIC Ab ATCC 19606.
Where [19] appears, read: Table 1, multidrug-resistant strain, read-out: MIC Ab ATCC BAA 1605.

As usually defined, the MIC is the lowest concentration found to suppress growth. Consider `O=C(NNc1ccc(Cl)cc1)c1ccc(F)cn1` [Compound 3e], for which the MIC in assay [1] (setting [18]) was 1 µg/mL (≈ 3.76 µM); in assay [1] (Table 5, Mueller-Hinton medium, I = A. baumannii ATCC 19606, read-out: MIC strain I), 1 µg/mL (≈ 3.76 µM); in [3], 0.13 µg/mL (≈ 0.489 µM); in [4] it was 0.25 µg/mL (≈ 0.941 µM); in assay [5] it was 0.25 µg/mL (≈ 0.941 µM); in assay [6], 0.13 µg/mL (≈ 0.489 µM). In addition, the MIC in assay [7] is 0.5 µg/mL (≈ 1.88 µM); in assay [8], 0.13 µg/mL (≈ 0.489 µM); in assay [9], 0.5 µg/mL (≈ 1.88 µM); in [10], 0.5 µg/mL (≈ 1.88 µM); in [11] it was 0.25 µg/mL (≈ 0.941 µM); in [12], 0.25 µg/mL (≈ 0.941 µM). In addition, the MIC is 0.06 µg/mL (≈ 0.226 µM) in [13]; 0.5 µg/mL (≈ 1.88 µM) in assay [14]; 0.25 µg/mL (≈ 0.941 µM) in [15]; 0.13 µg/mL (≈ 0.489 µM) in assay [16]; 0.0625 µg/mL (≈ 0.235 µM) in [17] (setting [19]); at most 0.125 µg/mL in [17] (Table 5, Mueller-Hinton medium, J = A. baumannii BAA1605, read-out: MIC strain J). In [1] (trypticase soy broth (TSB) medium), the MIC under conditions used to generate biofilm came out at 0.5 µg/mL (≈ 1.88 µM). For the same molecule, the “number of compound/strain combinations with MIC value 0.25 μg/mL” value in assay [2] worked out at 16. For the same molecule, in assay [2], the “number of compound/strain combinations with MIC value 0.5 μg/mL” value is given as 10. Besides, in assay [2], the “number of compound/strain combinations with MIC value 1 μg/mL” value turned out to be 1. In addition, the “number of compound/strain combinations with MIC value ≤0.125 μg/mL” value in [2] is recorded as 16.
As for `O=C(NNc1cccc(F)c1)c1cnccn1` [Compound 9a], the MIC is 0.5 µg/mL (≈ 2.15 µM) in assay [1] (setting [18]); 0.25 µg/mL (≈ 1.08 µM) in assay [3]; 0.25 µg/mL (≈ 1.08 µM) in assay [4]; 0.25 µg/mL (≈ 1.08 µM) in assay [5]; 0.5 µg/mL (≈ 2.15 µM) in assay [6]; 1 µg/mL (≈ 4.31 µM) in assay [7]. The MIC in [8] was 0.25 µg/mL (≈ 1.08 µM); in [9] it was 0.5 µg/mL (≈ 2.15 µM); in assay [10], 0.5 µg/mL (≈ 2.15 µM); in assay [11], 0.5 µg/mL (≈ 2.15 µM); in [12], 1 µg/mL (≈ 4.31 µM); in assay [13], at most 0.13 µg/mL. The MIC in assay [14] stood at 0.25 µg/mL (≈ 1.08 µM); in assay [15], 0.25 µg/mL (≈ 1.08 µM); in assay [16] it was 0.25 µg/mL (≈ 1.08 µM); in assay [17] (setting [19]), 0.5 µg/mL (≈ 2.15 µM). Also, the “number of compound/strain combinations with MIC value 0.25 μg/mL” value in assay [2] worked out at 11. For the same molecule, the “number of compound/strain combinations with MIC value 0.5 μg/mL” value in [2] is reported as 18. For the same molecule, the “number of compound/strain combinations with MIC value 1 μg/mL” value in assay [2] is 10. Moreover, in assay [2], the “number of compound/strain combinations with MIC value ≤0.125 μg/mL” value stood at 4.
